Laboratory results published in patent US12370143B2, “Compound or salt thereof and lipid particles” (FUJIFILM Corporation, priority 2018, dated 2025).
Where two headings read alike, the source gives them in different places.

Legend:
[1] = Particle size of nucleic acid lipid particles (FVII-siRNA); assay type: physicochemical
Method in brief: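 Lipid particles formed by micromixing ethanolic ionizable lipid/DSPC/cholesterol/DMG-PEG2000 (50/10/38.5/1.5 mol) with siRNA in pH 4 acetate buffer (3:1 water:oil), diluted with PBS and dialysed against PBS.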

[2] = Particle size of nucleic acid lipid particles (Luc2-siRNA); assay type: physicochemical; settings: compound/DSPC/cholesterol/DMG-PEG2000 50/10/38.5/1.5
Method in brief: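 Lipid particles formed from oil phase (test lipid/DSPC/cholesterol/DMG-PEG2000, 50/10/38.5/1.5 molar, 20 mmol/L total in ethanol) micromixed 1:3 with Luc2-siRNA in pH 4 acetate buffer (19.7 μmol/L); siRNA/lipid 339 mol/mol, PBS-diluted and dialyzed. Size measured on ELS-Z2 dynamic light scattering.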

[3] = system: DMS273 cells constantly expressing Luc; experiment: Target reporter protein (Luc) knockdown in cell, reporter protein assay; assay type: cell-based; settings: Homo sapiens, DMS-273
Method in brief: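 Nucleic acid lipid particles added at final 0.1 to 100 nmol/L to DMS273 human SCLC cells stably expressing Luc2, 24 hr exposure then 24 hr further culture after medium change. Luc quantified by Steady Glo luminescence after viable cell count; knockdown efficiency calculated and IC50 taken as concentration giving 50% Luc reduction.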

[4] = Nucleic acid encapsulation rate of nucleic acid lipid particles (FVII-siRNA); assay type: physicochemical
Method in brief: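 Total nucleic acid was measured by adding 30 μL of 3 mol/L sodium acetate and 9 μL of glycogen to 60 μL of FVII-siRNA lipid particles, then precipitating with 1.5 mL ethanol, centrifuging, air-drying, redissolving in water, and reading on a Nanodrop. Outer-phase nucleic acid came from a RiboGreen assay (ex 485 nm, em 535 nm) on samples diluted 10,000× in 1×TE. Encapsulation (%) = (total − outer)/total × 100.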

[5] = system: Factor VII (FVII) protein; experiment: Measurement of Factor VII (FVII) protein in mouse plasma after FVII-siRNA lipid particles; assay type: in vivo, C57BL6/J mice; settings: 0.1 mg/kg caudal vein, plasma 24 hours after administration, PBS group = 100%
Method in brief: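 C57BL6/J mice (n=3) received FVII-siRNA nucleic acid lipid particles at 0.1 mg/kg into the tail vein; controls got PBS. Each value is the percentage of the PBS-group FVII level.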

[6] = Encapsulation rate of siRNA in nucleic acid lipid particles (Luc2-siRNA); assay type: physicochemical; settings: compound/DSPC/cholesterol/DMG-PEG2000 50/10/38.5/1.5
Method in brief: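 Encapsulation rate was calculated as (total − outer-phase siRNA)/total ×100. Total siRNA was quantified spectrophotometrically after lipid-dissolving ethanol precipitation, and unencapsulated siRNA by RiboGreen in TE (ex 485/em 535 nm). The particles were test lipid/DSPC/cholesterol/DMG-PEG2000 at 50/10/38.5/1.5, formed by microfluidic mixing with Luc2-siRNA at pH 4 and dialyzed against PBS.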

[7] = Luc2-siRNA lipid particles using the compound, siRNA 0.1 to 100 nmol/L, concentration at which Luc expression is knocked down to 50%, read-out: IC50

| Structure (SMILES) | Particle size (nm) [1] [nm] | Particle size (nm) [2] [nm] | IC50 [3, 7] [nM] | Nucleic acid encapsulation rate [4] [%] | Relative amount of FVII protein (%) [5] [%] | Nucleic acid encapsulation rate [6] [%] | IC50 [3] [nM] |
| --- | --- | --- | --- | --- | --- | --- | --- |
| CCCCCCCCCCC(CCCCCCCCC(=O)OCC(CCCC)CCCCCC)OC(=O)OCCN(CC)CCN(CC)CC (stereo not drawn) [Example 68, 2-Butyloctyl 12-decyl-3,6-diethyl-10-oxo-9,11-dioxa-3,6-diazahenicosan-21-oate] | 84.5 | 70.7 | 37 | 91 | 9 | 97 |  |
| CCCCCCCCCCC(CCCCCCCCC(=O)OCC(CCCC)CCCCCC)OC(=O)OCCN(CCN(CC)CC)C(C)C (stereo not drawn) [Example 69, 2-Butyloctyl 12-decyl-3-ethyl-6-isopropyl-10-oxo-9,11-dioxa-3,6-diazahenicosan-21-oate] | 86.8 | 67.6 | 28 | 97 | 6 | 98 |  |
| CCCCCCC(CCCC)COC(=O)CCCCCCCCC(CCCCCCCCC(=O)OCC(CCCC)CCCCCC)OC(=O)OCCN(CC)CCN(CC)CC (stereo not drawn) [Example 72, Bis(2-butyloctyl)10-(((2-((2-(diethylamino)ethyl)(ethyl)amino)ethoxy)carbonyl)oxy)nonadecanedioate] | 72.4 | 74.2 | 31 | 85 | 6 | 81 |  |
| CCCCCCCCCC(CCCCCCCCC(=O)OCC(CCCC)CCCCCC)OC(=O)OCCN(CC)CCN(CC)CC (stereo not drawn) [Example 75, 2-Butyloctyl 3,6-diethyl-12-nonyl-10-oxo-9,11-dioxa-3,6-diazahenicosan-21-oate] | 79.1 | 65.4 | 8 | 83 | 17 | 76 |  |
| CCCCCCCCCC(=O)OCCCCCCC(CCCCCCOC(=O)CC(CCCCCCC)CCCCCCC)OC(=O)OCCN(CC)CCN(CC)CC (stereo not drawn) [Example 78, 12-(6-(Decanoyloxy)hexyl)-3,6-diethyl-10-oxo-9,11-dioxa-3,6-diazooctadecan-18-yl 3-heptyldecanoate] | 74.2 | 71.7 |  | 78 | 10 | 75 | 16 |
| CCCCCCCCCC(=O)OCCN(CCOC(=O)OC(CCCCCC)CCCCCCCCC(=O)OCC(CCCC)CCCCCC)CCN(CC)CC (stereo not drawn) [Example 87, 2-Butyloctyl 6-(2-(decanoyloxy)ethyl)-3-ethyl-12-hexyl-10-oxo-9,11-dioxa-3,6-diazahenicosan-21-oate] | 69.3 | 69.2 | 34 | 87 | 3 | 79 |  |
| CCCCCCCC(=O)OCCN(CCOC(=O)OC(CCCCCC)CCCCCCCCC(=O)OCC(CCCC)CCCCCC)CCN(CC)CC (stereo not drawn) [Example 88, 2-Butyloctyl 3-ethyl-12-hexyl-6-(2-(octanoyloxy)ethyl)-10-oxo-9,11-dioxa-3,6-diazahenicosan-21-oate] | 78.7 | 74.6 | 23 | 83 | 2 | 81 |  |
| CCCCCCCC/C=C\CCCCCCCC(=O)OCCN(CCCN(CC)CC)CCOC(=O)OC(CCCCCC)CCCCCCCCC(=O)OCC(CCCC)CCCCCC (stereo not drawn) [Example 93, 2-Butyloctyl 3-ethyl-13-hexyl-7-(2-(oleoyloxy)ethyl)-11-oxo-10,12-dioxa-3,7-diazadocosan-22-oate] | 67.8 | 70.4 | 22 | 73 | 7 | 70 |  |
| CCCCCCCCC(CCCCCC)COC(=O)CCCCCCC(CCCCCC)OC(=O)OCCN(CCN(CC)CC)C(C)C (stereo not drawn) [Example 94, 2-Hexyldecyl 3-ethyl-12-hexyl-6-isopropyl-10-oxo-9,11-dioxa-3,6-diazanonadecan-19-oate] | 86.1 | 72.7 | 39 | 75 | 8 | 76 |  |
| CCCCCCCCC(CCCCCC)COC(=O)CCCCCCCCC(CCCCCC)OC(=O)OCCN(CCOC(=O)CCCCC)CCN(CC)CC (stereo not drawn) [Example 100, 2-Hexyldecyl 3-ethyl-6-(2-(hexanoyloxy)ethyl)-12-hexyl-10-oxo-9,11-dioxa-3,6-diazahenicosan-21-oate] | 85.1 | 76.7 | 26 | 80 | 2 | 82 |  |
| CCCCCCCCC(=O)OCCN(CCOC(=O)OC(CCCCCC)CCCCCCCCC(=O)OCC(CCCC)CCCCCC)CCN(CC)CC (stereo not drawn) [Example 103, 2-Butyloctyl 3-ethyl-12-hexyl-6-(2-(nonanoyloxy)ethyl)-10-oxo-9,11-dioxa-3,6-diazahenicosan-21-oate] | 69.8 | 64.3 | 14 | 79 | 2 | 80 |  |
| CCCCCCC(=O)OCCN(CCOC(=O)OC(CCCCCC)CCCCCCCCC(=O)OCC(CCCC)CCCCCC)CCN(CC)CC (stereo not drawn) [Example 104, 2-Butyloctyl 3-ethyl-6-(2-(heptanoyloxy)ethyl)-12-hexyl-10-oxo-9,11-dioxa-3,6-diazahenicosan-21-oate] | 85.8 | 76.6 | 4 | 69 | 1 | 81 |  |
| CCCCCCC(CCCC)COC(=O)CCCCCCCCC(CCCCCC)OC(=O)OCCN(CCOC(=O)CCCCC)CCN(CC)CC (stereo not drawn) [Example 105, 2-Butyloctyl 3-ethyl-6-(2-(hexanoyloxy)ethyl)-12-hexyl-10-oxo-9,11-dioxa-3,6-diazahenicosan-21-oate] | 102.4 | 100 | 28 | 73 | 7 | 81 |  |
| CCCCCCCCCCCC(=O)OCCN(CCOC(=O)OC(CCCCCC)CCCC(=O)OCC(CCCC)CCCCCC)CCN(CC)CC (stereo not drawn) [Example 106, 2-Butyloctyl 6-(2-(dodecanoyloxy)ethyl)-3-ethyl-12-hexyl-10-oxo-9,11-dioxa-3,6-diazahexadecan-16-oate] | 66.4 | 62.4 | 37 | 85 | 2 | 80 |  |
